Consider 4 compounds from the supplement of paper PMC4862054.

Holding throughout (conditions): 72 h
The test system of test [1] is Hs578T. In short, it runs like this:
(§1)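 After 72 h on 384-well plates pre-loaded with compound in 5 µl medium, breast cancer cell lines seeded in 20 µl were assayed for viability with 2.5 µl CellTiter-Blue at 37 °C for 2 h, read at 560/590 nm. Each plate was quality-checked by Z'-factor and normalised to vehicle and a positive kill control. EC50 comes from the fitted percent-inhibition dose-response curve, censored at the top concentration, and rows scoring zero for drug sensitivity were left out.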

Test [2] deals with HCC1143. The method in brief: as §1
Test [3] concerns MDA-MB-453. In short, it runs like this:
as §1

The test system of test [4] is CAL-51. The method in brief:
as §1

The subject of test [5] is Hs578T. How it is done: (§2)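 Drug sensitivity and resistance testing (DSRT) of breast cancer cell lines in 384-well plates, 5 concentrations in 10-fold dilutions over a compound-specific 10,000-fold range. After 72 h, cytotoxicity was read by CellTox Green fluorescence and viability by CellTiter-Glo luminescence (multiplexed), normalised to DMSO and benzethonium chloride controls. EC50 is the inflection point of the fitted dose-response curve (bottom asymptote free, so it can be relative for partial curves) and is censored at the highest tested concentration. Rows with DSS 0 (no meaningful response) were excluded.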
The source holds these as a separate data set.

Test [6] concerns HDQ-P1. How it is done:
as §2

Test [7] relates to MFM-223. How it is done:
as §2

In test [8] the test system is MDA-MB-453. The procedure:
as §2
This is another data set of the same source.

The subject of test [9] is CAL-85-1. The procedure:
as §2

For test [10], the system named is MDA-MB-468. The procedure: as §2
Test [11] deals with MDA-MB-231. The procedure:
as §2

Test [12] has as its system CAL-51. How it is done:
as §2
The source holds these as a separate data set.

The test system of test [13] is MCF-10A. The procedure:
as §2

The test system of test [14] is BT-549. How it is done: as §2
For test [15], the system named is Hs578T. In short, it runs like this:
(§3)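 For viability and cell death testing, 384-well plates carried compound at 5 concentrations in 10-fold steps over a compound-specific 10,000-fold range, and breast cancer cell lines were seeded in 20 µl suspension. After 72 h incubation, cell death was read by CellTox Green fluorescence (485/520 nm) before viability was read by CellTiter-Glo luminescence. EC50 was fitted from the dose-response curves and censored at the top concentration. Normalisation on each plate was to 0.1 % DMSO and a positive kill control.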
This is another data set of the same source.

In another test the test system is SK-BR-3. The method in brief:
as §3

Test [16] relates to MFM-223. The method in brief: as §3
This is another data set of the same source.

For test [17], the system named is HCC1143. In short, it runs like this:
as §3
The source holds these as a separate data set.

Test [18] relates to MDA-MB-436. In short, it runs like this:
as §3

The subject of test [19] is MDA-MB-453. The method in brief: as §3
This is another data set of the same source.

Test [20] relates to CAL-85-1. In short, it runs like this:
as §3
The source holds these as a separate data set.

Test [21] relates to DU-4475. The method in brief:
as §3

In test [22] the test system is HCC1937. In short, it runs like this:
as §3

The subject of test [23] is MDA-MB-231. In short, it runs like this: as §3
The source holds these as a separate data set.

The subject of test [24] is CAL-51. In short, it runs like this: as §3
The source holds these as a separate data set.

In test [25] the test system is MCF-10A. In short, it runs like this:
as §3
The source holds these as a separate data set.

In test [26] the test system is BT-549. The method in brief: as §3
The source holds these as a separate data set.

Test [27] concerns HCC1599. In short, it runs like this: as §3
The subject of test [28] is CAL-120. The method in brief: as §3
Test [29] relates to MDA-MB-436. The method in brief:
as §1
The source holds these as a separate data set.

Test [30] concerns MDA-MB-468. In short, it runs like this:
as §1
The source holds these as a separate data set.

Test [31] has as its system HCC1937. In short, it runs like this: as §1
This is another data set of the same source.

Test [32] concerns BT-549. In short, it runs like this:
as §1
This is another data set of the same source.

The test system of test [33] is BT-474. In short, it runs like this: as §1
For test [34], the system named is BT-474. The procedure: as §2
This is another data set of the same source.

Test [35] has as its system CAL-120. The procedure:
as §2
This is another data set of the same source.

Test [36] deals with HDQ-P1. The method in brief:
as §1
The source holds these as a separate data set.

The subject of test [37] is CAL-85-1. In short, it runs like this:
as §1
This is another data set of the same source.

For test [38], the system named is DU-4475. In short, it runs like this:
as §1
The source holds these as a separate data set.

Test [39] has as its system CAL-148. The method in brief:
as §3

Test [40] deals with MFM-223. The method in brief:
as §1
This is another data set of the same source.

The subject of test [41] is HCC1599. In short, it runs like this:
as §1
The source holds these as a separate data set.

For test [42], the system named is CAL-148. How it is done: as §2
The source holds these as a separate data set.

For test [43], the system named is HCC1937. The procedure:
as §2
This is another data set of the same source.

Test [44] concerns CAL-148. The method in brief:
as §1
This is another data set of the same source.

As to `CC(=O)c1c(C)c2cnc(Nc3ccc(N4CCNCC4)cn3)nc2n(C2CCCC2)c1=O`, the “EC50, CellTiter-Blue viability” value was 7700 nM with Hs578T [1], 9920 nM in the test on HCC1143 [2], 102 nM with MDA-MB-453 [3] and 1170 nM in the test with CAL-51 [4].

In the case of `Cn1cc(C2=Nc3cc(NC(=O)C(N)C4CCCCC4)cc4c3C2=CNNC4=O)cn1` (centres undefined), the “EC50, CellTox Green” value was 9610 nM in the test with Hs578T [5]; 1000 nM in the test with HDQ-P1 [6]; 3030 nM with MFM-223 [7]; 7250 nM in the test with MDA-MB-453 [8]; 88.9 nM with CAL-85-1 [9]; 5280 nM in the test with MDA-MB-468 [10]. Further, the “EC50, CellTox Green” value worked out at 255 nM in the test on MDA-MB-231 [11], 1130 nM in the test with CAL-51 [12], 89.5 nM in the test on MCF-10A [13] and 7370 nM in the test with BT-549 [14]. In addition, the “EC50, CellTiter-Glo” value stood at 387 nM in the test on Hs578T [15]; 193 nM with SK-BR-3; 109 nM with MFM-223 [16]; 1730 nM in the test on HCC1143 [17]; 1430 nM in the test with MDA-MB-436 [18]; 109 nM with MDA-MB-453 [19]. Moreover, the “EC50, CellTiter-Glo” value stood at 293 nM in the test on CAL-85-1 [20]; 9440 nM in the test on DU-4475 [21]; 3870 nM with HCC1937 [22]; 1410 nM in the test on MDA-MB-231 [23]; 2380 nM with CAL-51 [24]; 2700 nM with MCF-10A [25]. Moreover, the “EC50, CellTiter-Glo” value was determined as 397 nM with BT-549 [26], 130 nM in the test with HCC1599 [27] and 5050 nM in the test on CAL-120 [28].

For the compound `COc1cc2c(cc1O)CC[C@@H]1[C@@H]2CC[C@]2(C)[C@@H](O)CC[C@@H]12` [2-methoxyestradiol], the “EC50, CellTiter-Blue viability” value turned out to be 1210 nM in the test with Hs578T [1]; 5620 nM with HCC1143 [2]; 697 nM with MDA-MB-436 [29]; 3190 nM with MDA-MB-468 [30]; 820 nM in the test on HCC1937 [31]; 1020 nM in the test on BT-549 [32]. For the same compound, the “EC50, CellTiter-Blue viability” value turned out to be 747 nM in the test on BT-474 [33]; 4220 nM in the test with HDQ-P1 [36]; 552 nM with MDA-MB-453 [3]; 1280 nM with CAL-85-1 [37]; 1730 nM with DU-4475 [38]; 2450 nM in the test with CAL-51 [4]. Moreover, the “EC50, CellTox Green” value was 1820 nM with Hs578T [5]; 660 nM with MFM-223 [7]; 756 nM in the test with MDA-MB-231 [11]; 4060 nM with CAL-51 [12]; over 10000 nM in the test with BT-549 [14]; 370 nM in the test on BT-474 [34]. Besides, in the test with CAL-120 [35], the “EC50, CellTox Green” value was 6410 nM. For the same compound, the “EC50, CellTiter-Glo” value was 1400 nM in the test on Hs578T [15]; 3130 nM in the test with SK-BR-3; 1830 nM in the test on MFM-223 [16]; 1300 nM with HCC1143 [17]; 1060 nM in the test with MDA-MB-436 [18]; 543 nM in the test with MDA-MB-453 [19]. Besides, the “EC50, CellTiter-Glo” value in the test on CAL-85-1 [20] is 2220 nM; in the test on CAL-148 [39], 7660 nM; with DU-4475 [21] it was 4530 nM; with MDA-MB-231 [23], 938 nM; with CAL-51 [24], 4930 nM; with BT-549 [26], 251 nM. Besides, the “EC50, CellTiter-Glo” value is 6410 nM in the test with HCC1599 [27] and 1020 nM in the test with CAL-120 [28].

In the case of `Cc1sc2c(c1C)C(c1ccc(Cl)cc1)=N[C@@H](CC(=O)OC(C)(C)C)c1nnc(C)n1-2` [(+)JQ1], the “EC50, CellTiter-Blue viability” value with Hs578T [1] was 122 nM; with MFM-223 [40], 243 nM; with HCC1143 [2], 354 nM; in the test on MDA-MB-468 [30], 871 nM; in the test with HCC1937 [31], 468 nM; with BT-549 [32] it was 320 nM. The “EC50, CellTiter-Blue viability” value worked out at 406 nM in the test with HCC1599 [41]; 172 nM with MDA-MB-453 [3]; 254 nM in the test on CAL-85-1 [37]; 676 nM with CAL-148 [44]; 339 nM in the test on DU-4475 [38]; 1040 nM in the test on CAL-51 [4]. The “EC50, CellTox Green” value in the test on CAL-85-1 [9] worked out at 2020 nM; in the test on MDA-MB-468 [10], 1830 nM; with CAL-148 [42], 687 nM; with HCC1937 [43], 10 nM; in the test with CAL-51 [12] it was 2330 nM. For the same compound, the “EC50, CellTiter-Glo” value with Hs578T [15] came out at 126 nM; in the test with SK-BR-3 it was 494 nM; with MFM-223 [16], 481 nM; in the test with HCC1143 [17], 753 nM; in the test with MDA-MB-436 [18], 749 nM; in the test with MDA-MB-453 [19] it was 447 nM. Also, the “EC50, CellTiter-Glo” value in the test with CAL-85-1 [20] worked out at 316 nM; in the test with CAL-148 [39], 920 nM; with DU-4475 [21], 956 nM; in the test on HCC1937 [22], 720 nM; in the test on MDA-MB-231 [23] it was 653 nM; with CAL-51 [24], 7440 nM. The figures for the “EC50, CellTiter-Glo” value in the test with MCF-10A [25], in the test on BT-549 [26] and in the test with CAL-120 [28] were 254 nM, 167 nM and 231 nM, respectively.
